Assay results published in patent US7125889B2, “Treating of cardiovascular and related pathologies” (Medicure International Inc., priority 1999, dated 2006).
“And” between values parts separate entries of the source, which are not always exact repeats. Identical values can stand only once.

Assays:
isolated rat hearts = assay: Ischemia reperfusion in isolated rat hearts (Langendorff), left ventricular pressures; settings: for % recovery (LVDP) / LVEDP / LVSP: 30 min ischemia, 60 min reperfusion; for % recovery (LVDP) / LVEDP / LVSP / LVDP (A) / LVDP (B): P-5-P 15 μM; for LVDP (A): after ischemia (30 min ischemia, 60 min reperfusion); for LVDP (B): before ischemia
Protocol: Male Sprague-Dawley rats weighing 250–300 g are anaesthetized with a mixture of ketamine (60 mg/kg) and xylazine (10 mg/kg).
The left ventricular end diastolic pressure (LVEDP) is adjusted at 10 mmHg at the beginning of the experiment. […] All hearts are stabilized for a period of 30 mm and then randomly distributed into nine different experimental groups (n=5–8 per group). The experimental groups are defined as follows: • 1) Control group (control hearts are further perfused for 90 minutes for a total of […] of continuous perfusion); • 2) Ischemia reperfusion group (Ischemia reperfusion hearts are made globally ischemic by stopping the coronary flow completely for 30 mm and then the hearts are reperfused for 60 mm); • 3) P-5-P (15 μM) treated group; • 4) captopril (100 μM) treated group; • 5) verapamil (0.01 μM)) treated group; […]) treated group; […]) treated group; • 8) P-5-P+captopril treated group; • 9) P-5-P+verapamil treated group; • 10) P-5-P+propranolol treated group; • 11) P-5-P+PPADS treated group.
Drug treatment is started 10 min before global ischemia followed by 30 min global ischemia and 60 min reperfusion. At the end of some experiments, the hearts are quickly freeze-clamped with a liquid nitrogen precooled Wollenberger tong. Rats are housed in clear cages in a temperature and humidity controlled room on a 12 hr light-dark cycle. Food and water are supplied ad libitum.

[1] = tested on: rat model of coronary ligation; assay: Coronary artery ligation (myocardial infarction), mortality; type: in vivo; settings: 21 days after coronary occlusion; once daily by gastric tube: P-5-P 10 mg/kg, captopril 100 mg/kg, propranolol 50 mg/kg, verapamil 25 mg/kg, aspirin 100 mg/kg; untreated 35%
Description: The animals were anesthetized with ether, the skin incised along the left sternal border, the fourth rib cut proximal to the sternum, and retractors inserted. The pericardial sac was perforated and the heart was exteriorized through the intercostal space. The left coronary artery was ligated about 2 mm from its origin with a 6–0 silk suture and the heart was repositioned in the chest.
Rats are anesthetized with 1–5% isoflurane in 100% O2 (2 L flow rate). The skin is incised along the left sterna border and the 4th rib is cut proximal to the sternum and a retractor inserted. The pericardial sac is opened and the heart externalized. The left anterior descending coronary artery is ligated approximately 2 mm from its origin on the aorta using a 6–0 silk suture. The heart is then repositioned in the chest and the incision closed via purse-string sutures.
Sham operated rats undergo identical treatment except that the artery is not ligated. […] Unless indicated in the text, the experimental animals showing infarct size >30% of the left ventricle are used in this study. All animals are allowed to recover, allowed to receive food and water ad libitum, and are maintained for a period of 21 days for Electrocardiogram (ECG), hemodynamic, and histological assessment.
While the complete healing of the scar occurs within 3 weeks of the coronary occlusion, mild, moderate and severe stages of congestive heart failure have been reported to occur at 4, 8 and 16 weeks after ligation.
The rats are housed in clear cages in a temperature and humidity controlled room, on a 12 hour light-dark cycle. Food and water are supplied ad libitum. After surgery, rats are randomly assigned to treatment or non-treatment in both sham and experimental groups. Randomization of animals was performed and treatment begins 1 hour after coronary occlusion and continues for 21 days. The total duration of experiments in each case is 21 days. The groups are as follows: • 1) sham operated; • 2) coronary artery ligated (treatment with equal volumes of saline); • 3) coronary artery ligated (treated with 10 mg/kg P-5-P ); • 4) coronary artery ligated (treated with 100 mg/kg captopril); • 5) coronary artery ligated (treated with 50 mg/kg propranolol); • 6) coronary artery ligated (treated with 100 mg/kg aspirin); • 7) coronary artery ligated (treated with 25 mg/kg verapamil); • 8) coronary artery ligated (treated with 10 mg/kg P-5-P+100 mg/kg captopril); • 9) coronary artery ligated (treated with 10 mg/kg P-5-P+50 mg/kg propranolol); • 10) coronary artery ligated (treated with 10 mg/kg P-5-P+100 mg/kg aspirin); • 11) coronary artery ligated (treated with 10 mg/kg P-5-P+25 mg/kg verapamil). […]

[2] = tested on: rat model of coronary ligation; assay: Hemodynamic changes, heart and scar weight after coronary artery ligation; type: in vivo; settings: 21 days after coronary occlusion
Protocol: The rats are housed in clear cages in a temperature and humidity controlled room, on a 12 hour light-dark cycle. Food and water are supplied ad libitum. After surgery, rats are randomly assigned to treatment or non-treatment in both sham and experimental groups. Randomization of animals was performed and treatment begins 1 hour after coronary occlusion and continues for 21 days. The total duration of experiments in each case is 21 days. The groups are as follows: • 1) sham operated; • 2) coronary artery ligated (treatment with equal volumes of saline); • 3) coronary artery ligated (treated with 10 mg/kg P-5-P ); • 4) coronary artery ligated (treated with 100 mg/kg captopril); • 5) coronary artery ligated (treated with 50 mg/kg propranolol); • 6) coronary artery ligated (treated with 100 mg/kg aspirin); • 7) coronary artery ligated (treated with 25 mg/kg verapamil); • 8) coronary artery ligated (treated with 10 mg/kg P-5-P+100 mg/kg captopril); • 9) coronary artery ligated (treated with 10 mg/kg P-5-P+50 mg/kg propranolol); • 10) coronary artery ligated (treated with 10 mg/kg P-5-P+100 mg/kg aspirin); • 11) coronary artery ligated (treated with 10 mg/kg P-5-P+25 mg/kg verapamil).
P-5-P (10 mg/kg), captopril (100 mg/kg), propranolol (50 mg/kg), verapamil (25 mg/kg) and aspirin (100 mg/kg) were administered once daily by gastric tube.
The animals are prepared and grouped as described in Example 10 and were anesthetized with a solution of ketamine/xylazine which was injected. To maintain adequate ventilation, the trachea was intubated; the right carotid artery was exposed for introducing a microtip pressure transducer (model SPR-249, Millar, Houston, Tex.) into the left ventricle. The catheter was secured with a silk ligature around the artery, and various hemodynamic parameters such as left ventricular systolic pressure (LVSP), left ventricular end diastolic pressure (LVEDP), rate of contraction (+dp/dt), rate of relaxation (−dP/dt) were recorded and calculated on a computer system using a Acknowledge 3.1 software.
Once the hemodynamic parameters were measured the animals were sacrificed and hearts removed for measurement of heart weight, right ventricular weight, left ventricular weight and scar weight. Because complete healing of the scar in rats after coronary occlusion requires approximately 3 weeks, scar weight were measured only at 21 days.

[3] = tested on: 10% sucrose induced hypertension in rats; assay: 10% sucrose induced hypertension, systolic blood pressure (tail cuff); type: in vivo, rat
Description: Zein et al., in their publication entitled Sugar-Induced Blood Pressure Elevations Over the Lifespan of Three Substrains of Wistar Rats in Am. Coll. […] Hulman et al. in their publication entitled The Effect of Excess Dietary Sucrose on Growth, Blood Pressure, and Metabolism in Developing Sprague-Dawley Rats in Pediatr. […] Reaven et al., in their publication entitled Sugar-Induced Hypertension in Sprague-Dawley Rats in Am.
The blood pressure is monitored using the tail cuff method. The SBP is detected on an amplifier and the Acknowledge™ computer software program is used to determine the calculations.
The effect of concurrent administration of pyridoxal-5′-phosphate and captopril or verapamil on systolic blood pressure (marker of hypertension) in 10% sucrose induced hypertension in rats is determined.

Compound | % recovery (LVDP) (isolated rat hearts; Captopril 100 μM) [%] | LVEDP (isolated rat hearts; Captopril 100 μM) [mmHg] | LVSP (isolated rat hearts; Captopril 100 μM) [mmHg] | LVDP (A) (isolated rat hearts; Captopril 100 μM) | LVDP (B) (isolated rat hearts; Captopril 100 μM) | mortality rate [1] | % recovery (LVDP) (isolated rat hearts; PPADS 100 μM) | LVEDP (isolated rat hearts; PPADS 100 μM) [mmHg] | LVSP (isolated rat hearts; PPADS 100 μM) [mmHg] | % recovery (LVDP) (isolated rat hearts; Propranolol 3 μM) [%] | LVEDP (isolated rat hearts; Propranolol 3 μM) [mmHg] | LVSP (isolated rat hearts; Propranolol 3 μM) [mmHg] | % recovery (LVDP) (isolated rat hearts; Verapamil 0.01 μM) [%] | LVEDP (isolated rat hearts; Verapamil 0.01 μM) [mmHg] | LVSP (isolated rat hearts; Verapamil 0.01 μM) [mmHg] | LVDP (A) (isolated rat hearts; PPADS 100 μM) | LVDP (A) (isolated rat hearts; Propranolol 3 μM) | LVDP (A) (isolated rat hearts; Verapamil 0.01 μM) | LVDP (B) (isolated rat hearts; PPADS 100 μM) | LVDP (B) (isolated rat hearts; Propranolol 3 μM) | also measured
C[C@H](CS)C(=O)N1CCC[C@H]1C(=O)O [Captopril, captopril, reference compound] | 61.4 ± 5.2 | 54 ± 6.7 | 101 ± 14.6 | 47 ± 8.6 | 78 ± 10.9 | 15% | – | – | – | – | – | – | – | – | – | – | – | – | – | – | % recovery (LVDP) (isolated rat hearts; Captopril 100 μM, listed as captopril): 61.4%
Cc1ncc(COP(=O)(O)O)c(C=O)c1O [Example P5P, pyridoxal-5′-phosphate] | 78.2 ± 3.3 | 35 ± 4.8 | 98 ± 8.2 | 63 ± 5 | 80 ± 3.8 | 15% and 10% | 78.2 ± 3.3% | 35 ± 4.8 | 98 ± 8.2 | 78.2 ± 3.3 | 35 ± 4.8 | 98 ± 8.2 | 78.2 ± 3.3 | 35 ± 4.8 | 98 ± 8.2 | 63 ± 5 | 63 ± 5 | 63 ± 5 | 80 ± 3.8 | 80 ± 3.8 | effect on scar weight ([2]; FIGS. 5-8): significant beneficial effect; effect on rate of contraction (+dP/dt) ([2]; FIGS. 9-12): significant beneficial effect; effect on left ventricular end diastolic pressure (LVEDP) ([2]; FIGS. 17-20): significant beneficial effect; effect on whole heart weight ([2]; FIGS. 21-24): significant beneficial effect; effect on right ventricular weight ([2]; FIGS. 25-28): significant beneficial effect; % recovery (LVDP) (isolated rat hearts; Captopril 100 μM, listed as P-5-P): 78.2%; % recovery (LVDP) (isolated rat hearts; PPADS 100 μM, listed as P-5-P): 78.2%; % recovery (LVDP) (isolated rat hearts; Propranolol 3 μM, listed as P-5-P): 78.2%; % recovery (LVDP) (isolated rat hearts; Verapamil 0.01 μM, listed as P-5-P): 78.2%; LVDP (B) (isolated rat hearts; Verapamil 0.01 μM): 80 ± 3.8; benefit in ischemia reperfusion injury (isolated rat hearts; given alone, summary of Tables I-IV): significant benefit; effect on systolic blood pressure ([3]; treatment 1 week prior to inducing hypertension with a sucrose diet, FIGS. 29A, 29B): significant beneficial effect; effect on systolic blood pressure ([3]; treatment the same day as inducing hypertension with a sucrose diet, FIGS. 30A, 30B): significant beneficial effect; effect on systolic blood pressure ([3]; treatment two weeks after inducing hypertension with a sucrose diet, FIGS. 31A, 31B): significant beneficial effect
Cc1nc(N=Nc2ccc(S(=O)(=O)O)cc2S(=O)(=O)O)c(COP(=O)(O)O)c(C=O)c1O [PPADS, pyridoxal phosphate-6-azophenyl-2′,4′-disulphonic acid, reference compound] | – | – | – | – | – | – | 61% and 61 ± 4.8 % | 57 ± 6.3 | 115 ± 11.5 | – | – | – | – | – | – | 58 ± 13.6 | – | – | 92 ± 15.2 | – | –
CC(C)NCC(O)COc1cccc2ccccc12 (stereo not drawn) [Propranolol, propranolol, reference compound] | – | – | – | – | – | – | – | – | – | 74 ± 4.9 | 27 ± 6.6 | 72 ± 15.1 | – | – | – | – | 45 ± 9.7 | – | – | 61 ± 10.8 | % recovery (LVDP) (isolated rat hearts; Propranolol 3 μM, listed as propranolol): 74%
COc1ccc(CCN(C)CCCC(C#N)(c2ccc(OC)c(OC)c2)C(C)C)cc1OC (stereo not drawn) [Verapamil, verapamil, reference compound] | – | – | – | – | – | 25% | – | – | – | – | – | – | 43 ± 6.6 | 55 ± 5.1 | 78 ± 7.7 | – | – | 23 ± 4.5 | – | – | % recovery (LVDP) (isolated rat hearts; Verapamil 0.01 μM, listed as verapamil): 43%; LVDP (B) (isolated rat hearts; Verapamil 0.01 μM): 54 ± 9.1
CC(=O)Oc1ccccc1C(=O)O [aspirin] | – | – | – | – | – | 25% | – | – | – | – | – | – | – | – | – | – | – | – | – | – | –
